Results reported in PMC10508830 (Antiviral research, 2023).
pIC50: −log10 of the molar value.

Target: NA of clade 2.3.4.4b A(H5N1) viruses lacking the flagged NA substitutions (n = 15) (Influenza A virus, UniProt Q9Q0U7)
Type: biochemical
Conditions: read-out: Median IC50 A(H5N1)

Chain of NA of clade 2.3.4.4b A(H5N1) viruses lacking the flagged NA substitutions (n = 15) (Q9Q0U7 whole entry, looked up): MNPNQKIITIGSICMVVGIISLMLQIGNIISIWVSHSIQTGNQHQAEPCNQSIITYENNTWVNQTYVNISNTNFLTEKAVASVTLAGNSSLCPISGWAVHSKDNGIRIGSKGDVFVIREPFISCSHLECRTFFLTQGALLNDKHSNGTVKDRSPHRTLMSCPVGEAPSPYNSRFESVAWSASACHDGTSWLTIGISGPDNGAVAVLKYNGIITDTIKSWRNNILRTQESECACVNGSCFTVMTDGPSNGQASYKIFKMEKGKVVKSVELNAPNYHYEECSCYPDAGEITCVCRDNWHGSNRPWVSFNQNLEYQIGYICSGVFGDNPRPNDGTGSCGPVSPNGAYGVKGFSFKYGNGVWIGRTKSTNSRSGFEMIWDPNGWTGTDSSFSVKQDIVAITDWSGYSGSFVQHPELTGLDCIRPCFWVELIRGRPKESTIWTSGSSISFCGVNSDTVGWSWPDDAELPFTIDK

peramivir
pIC50: 10.00
